This test deals with CaCo-2. The test is described as follows: WST-1 viability assay, CaCo-2 cells. It counts as cell-based, human. The following applies: CaCo-2, 72 h incubation, WST-1, four replicates. The protocol:
Based on the novelty of the IMBcat compound, we aimed to evaluate its in vitro cytotoxicity in selected model cell lines as well as to determine the toxicity of the IBMcat enantiomers, since both the chemical structure and chirality of compounds could play a role in their bioactivity (Table 2). The cytotoxic profile of the IBMcat was determined by a WST-1 viability assay after 72-h treatment. For this purpose, cell lines derived from distinct tissues, often affected by NPSs, were chosen, i.e., cells of kidney, hepatic, neural, urinary, and intestinal origin as well as keratinocytes and primary fibroblasts (HEK 293T, Hep G2, HMC-3, SH-SY5Y, 5637, CaCo-2, HaCaT, MRC-5, and BJ, respectively). The cytotoxicity of IBMcat and its enantiomers was concentration- and cell-line dependent, the IC50 values, which were in the micromolar range, are given in Table 2. […] This was followed by embryonic kidney cells HEK 293T (immortalized), in which the toxicity ranged between a concentration of 123 and 192 µM.
In this study, the following cell lines were used: HEK 293T, Hep G2, HMC-3, SH-SY5Y, 5637, CaCo-2, HaCaT, MRC-5, BJ, and L929. […] The selected cell lines were chosen so that not only primary noncancerous cells are evaluated but also cells derived from tissues, which are the most often affected by novel synthetic drugs, i.e., kidney, liver, urinary bladder, and nervous tissue. […]
The cytotoxicity of IBMCat was evaluated in vitro by using a WST-1 viability assay (Sigma-Aldrich, Saint Louis, MO, USA) based on the transformation of a tetrazolium salt into colored formazan in metabolically active cells. […] After 72 h of additional incubation of the cells, their viability was determined by WST-1. […] The cells were incubated for 2 h, after which absorbance of the raised formazan was measured spectrophotometrically at 450 nm (reference wavelength of 630 nm) using a UV-Vis spectrometer (Bio-Rad Laboratories, Hercules, CA, USA). […] The half-maximal inhibitory concentrations (IC50) were calculated from the measured dose–response curves by AAT Bioquest.

Where a name gives a salt, the structure may show the parent alone.

For `CNC(C)C(=O)c1ccc(CC(C)C)cc1.Cl` (stereo not drawn) [IBMcat, 4-isobutylmethcathinone hydrochloride], the IC50 (Homo sapiens) was found to be 389 ± 42 µM. In the case of `CN[C@H](C)C(=O)c1ccc(CC(C)C)cc1` [R-IBMCat], it took 331 ± 19 µM to reach half-maximal inhibition (IC50). On to `CN[C@@H](C)C(=O)c1ccc(CC(C)C)cc1` [S-IBMCat, (S)-4-isobutylmethcathinone hydrochloride], for which the IC50 (Homo sapiens) turned out to be 390 ± 17 µM.

Usually IC50 stands for the midpoint of a concentration-inhibition curve. A low value points to greater potency.

These data come from article PMC9780888, “4-Isobutylmethcathinone—A Novel Synthetic Cathinone with High In Vitro Cytotoxicity and Strong Receptor Binding Preference of Enantiomers” (Pharmaceuticals, 2022).
